Source: patent publication US9212204B2, “Treatment of rett syndrome using glycyl-L-2-methylprolyl-L-glutamic acid” (priority 2011, dated 2015)
Non-standard residues stand in square brackets, D forms with d. Residues, ends and D or L forms follow the SMILES beside them. αMeP = C[C@@]1(C(=O)O)CCCN1

Test system: 12-month old male Wistar rats
Assay: Morris water maze test, spatial reference memory
Type: in vivo, rat
Experimental: We used male Wistar rats 12, 8 or 4 months of age.
The Morris water maze test was conducted using a black plastic pool filled to a depth of 25 cm with water colored black with a non-toxic dye. […] The platform remained in that position though the training.
The experiment used extra-maze cues (i.e. objects in the room surrounding the pool) that the rats could use to navigate to the platform. Distinctive posters or paintings were hung on the walls. Furniture in the room was not moved during the testing period. The placement of the pool allowed the experimenter an easy access to it from all sides. The pool was emptied and refilled daily during testing, with water at 25° C.+/−2° C.
The furthermost point in the pool (relative to the position of the experimenter) was designated as “north”, and the other compass points “east”, “south” and “west” were the right-most, bottom and left-most points of the pool respectively. These points were marked with tape on the outside of the pool.
Rats in each group were trained to swim to the submerged platform. The rats received six 60-second trials per day for four consecutive days. A trial began by placing the rat into the water facing the wall of the pool, at one of four start locations (north, south, east, west). […]

Q: With `C[C@@]1(C(=O)N[C@@H](CCC(=O)O)C(=O)O)CCCN1C(=O)CN` [Example G-2-MePE, Glycyl-L-2-methylprolyl-L-glutamic acid] (H-Gly-[αMeP]-Glu-OH) as the compound, how does the “time needed to reach the platform, retention phase” value (high (4.8 mg/day) or low (0.96 mg/day) dose, vs saline-treated controls, 12 month old rats) read?
A: decrease in the time needed to reach the platform

Q: What about the “retention of the original water maze task” value (high dose 4.8 mg/day s.c. minipump over 3 weeks, 4-week delay, vs 3-week vehicle) of the same compound?
A: improved the retention
